Test results reported in US10975068B2, “6-aminopyridin-3-yl thiazoles as modulators of RORγT” (Janssen Pharmaceutica NV, priority 2016, dated 2021).
Where two headings read alike, the source gives them in different places. Marks after values point to notes of the source that are not given here.

Key:
full-length human RORγt = full-length human RORγt (Homo sapiens (Human), UniProt P51449); experiment: RORγt (full-length human) reporter assay, Conditions B or C; assay type: cell-based; settings: for RORγt (FL) Reporter Assay B or C, % inhibition / inhibition at 3 µM: at 3 μM compound concentration; for inhibition at 3 µM: read-out: RORγt (FL) Reporter Assay B or C, % inhibition; for RORγt (FL) Reporter Assay B or C, % inhibition (value marked *): marked *: footnote not given
full-length human RORγt, sequence (P51449 other isoform, or with tags, fused parts or gaps): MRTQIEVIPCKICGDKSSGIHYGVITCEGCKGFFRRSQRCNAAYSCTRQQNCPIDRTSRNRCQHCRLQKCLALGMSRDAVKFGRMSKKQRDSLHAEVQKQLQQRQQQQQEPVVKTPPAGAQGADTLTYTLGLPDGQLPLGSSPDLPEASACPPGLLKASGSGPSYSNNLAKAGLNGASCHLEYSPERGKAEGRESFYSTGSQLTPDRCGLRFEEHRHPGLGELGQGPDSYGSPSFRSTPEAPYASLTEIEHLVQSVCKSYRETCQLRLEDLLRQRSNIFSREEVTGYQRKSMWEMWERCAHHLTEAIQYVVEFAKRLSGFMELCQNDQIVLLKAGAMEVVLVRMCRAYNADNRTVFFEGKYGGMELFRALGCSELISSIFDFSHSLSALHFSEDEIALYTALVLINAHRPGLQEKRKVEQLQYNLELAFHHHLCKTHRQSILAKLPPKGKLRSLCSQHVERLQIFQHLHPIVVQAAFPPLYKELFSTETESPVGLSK
Summary of the method: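 HEK293T cells transiently co-transfected with GAL4-DBD–full-length human RORγt (nt 142-1635, NM_001001523.1) plus GAL4-firefly and CMV-Renilla luciferase reporters; compounds added 4-6 h post-transfection for 16-20 h in 1.3% FBS, 0.1% DMSO. Firefly signal normalized to DMSO and saturating reference compound, then to Renilla; IC50 from concentration plots.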

[1] = target: human RORγt ligand binding domain (RORγt LBD) (Homo sapiens (Human), UniProt P51449); experiment: RORγt ThermoFluor® assay (thermal shift binding); settings: read-out: ThermoFluor® Assay, Kd
human RORγt ligand binding domain (RORγt LBD), sequence (P51449 other isoform, or with tags, fused parts or gaps): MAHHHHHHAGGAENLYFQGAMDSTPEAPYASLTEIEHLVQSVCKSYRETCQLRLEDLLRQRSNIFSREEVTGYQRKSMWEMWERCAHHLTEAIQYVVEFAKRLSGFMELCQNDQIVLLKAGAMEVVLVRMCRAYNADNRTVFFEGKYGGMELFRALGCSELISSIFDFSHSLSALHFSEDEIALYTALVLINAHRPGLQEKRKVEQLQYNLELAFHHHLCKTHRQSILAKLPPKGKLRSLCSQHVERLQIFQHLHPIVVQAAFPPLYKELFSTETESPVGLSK
Summary of the method: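 His-tagged human RORγt LBD (0.065 mg/mL) with 60 μM 1,8-ANS in 100 mM Hepes pH 7.0, 10 mM NaCl, 2.5 mM GSH, 0.002% Tween-20 was heated at 1 °C/min.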

[2] = read-out: RORγt (FL) Reporter Assay B or C, IC50
[3] = Conditions B or C, read-out: RORγt (FL) Reporter Assay B or C, IC50

Compound | IC50 (full-length human RORγt; [2]) | Kd [1] | RORγt (FL) Reporter Assay B or C, % inhibition (value marked *) (full-length human RORγt; Conditions B or C) | IC50 (full-length human RORγt; [3]) | also measured
C[C@H]1CCCN1C(=O)c1nc(C(=O)NCC(C)(O)C(F)(F)F)sc1-c1cnc(NC(C)(C)C)cc1C(F)(F)F (single isomer, unassigned) [Example 359, 5-(6-(tert-Butylamino)-4-(trifluoromethyl)pyridin-3-yl)-4-((S)-2-methylpyrrolidine-1-carbonyl)-N—((R*)-3,3,3-trifluoro-2-hydroxy-2-methylpropyl)thiazole-2-carboxamide] | 0.0076 µM | 1.1 nM | – | – | RORγt (FL) Reporter Assay B or C, % inhibition (full-length human RORγt): 125* %
C[C@H]1CCCN1C(=O)c1nc(C(=O)N[C@H]2C[C@H](O)C2)sc1-c1cnc(N[C@@H](C2CC2)C(F)(F)F)cc1C(F)F [Example 310, 5-(6-(((S)-1-Cyclopropyl-2,2,2-trifluoroethyl)amino)-4-(difluoromethyl)pyridin-3-yl)-N-((1r,3S)-3-hydroxycyclobutyl)-4-((S)-2-methylpyrrolidine-1-carbonyl)thiazole-2-carboxamide] | 0.036 µM | 8.7 nM | – | – | inhibition at 3 µM (full-length human RORγt): 92%
CC[C@H](Nc1cc(C(F)F)c(-c2sc(C(=O)N[C@H]3C[C@H]3O)nc2C(=O)N2CCC[C@@H]2C)cn1)C(F)(F)F (relative stereo) [Example 212, 5-(4-(Difluoromethyl)-6-(((S)-1,1,1-trifluorobutan-2-yl)amino)pyridin-3-yl)-N-((1S*,2R*)-2-hydroxycyclopropyl)-4-((S)-2-methylpyrrolidine-1-carbonyl)thiazole-2-carboxamide] | – | 13 nM | 104* % | 0.3 µM | –
C[C@H]1CCCN1C(=O)c1nc(C(=O)NCC(C)(C)O)sc1-c1cnc(NC2(C(F)(F)F)CCC2)cc1C(F)(F)F [Example 104, (S)—N-(2-Hydroxy-2-methylpropyl)-4-(2-methylpyrrolidine-1-carbonyl)-5-(4-(trifluoromethyl)-6-((1-(trifluoromethyl)cyclobutyl)amino)pyridin-3-yl)thiazole-2-carboxamide] | – | 0.64 nM | 110* % | 0.025 µM | –
C[C@H](Nc1cc(C(F)F)c(-c2sc(C(=O)N[C@H](C)C(C)(C)O)nc2C(=O)N2CC(F)(F)C[C@@H]2C)cn1)C1CC1 [Example 194, 5-(6-(((S)-1-Cyclopropylethyl)amino)-4-(difluoromethyl)pyridine-3-yl)-4-((S)-4,4-difluoro-2-methylpyrrolidine-1-carbonyl)-N—((R)-3-hydroxy-3-methylbutan-2-yl)thiazole-2-carboxamide] | – | 4.7 nM | 85* % | 0.088 µM | –
C[C@H]1CCCN1C(=O)c1nc(C(=O)N2CC[C@@](C)(O)C2)sc1-c1cnc(NC(C)(C)C)cc1C(F)(F)F (relative stereo) [Example 366, (5-(6-(tert-Butylamino)-4-(trifluoromethyl)pyridin-3-yl)-2-((R*)-3-hydroxy-3-methylpyrrolidine-1-carbonyl)thiazol-4-yl)-((S)-2-methylpyrrolidin-1-yl)methanone] | 0.063 µM | 10 nM | – | – | inhibition at 3 µM (full-length human RORγt): 97%
C[C@H](Nc1cc(C(F)F)c(-c2sc(C(=O)NC3CCC3O)nc2C(=O)N2CCC[C@@H]2C)cn1)C(F)(F)F (stereo partly drawn) [Example 389, 5-(4-(Difluoromethyl)-6-(((S)-1,1,1-trifluoropropan-2-yl)amino)pyridin-3-yl)-N-(cis-2-hydroxycyclobutyl)-4-((S)-2-methylpyrrolidine-1-carbonyl)thiazole-2-carboxamide] | 0.14 µM | 7.7 nM | – | – | RORγt (FL) Reporter Assay B or C, % inhibition (full-length human RORγt): 90* %
CCC(C)(C)Nc1cc(C(F)(F)F)c(-c2sc(C(=O)NCC(C)(C)O)nc2C(=O)N2CCCC[C@@H]2C)cn1 [Example 108, (S)—N-(2-Hydroxy-2-methylpropyl)-4-(2-methylpiperidine-1-carbonyl)-5-(6-(tert-pentylamino)-4-(trifluoromethyl)pyridin-3-yl)thiazole-2-carboxamide] | – | 0.07 nM | 104* % | 0.047 µM | –
O=C(N[C@@H]1CCC[C@H]1O)c1nc(C(=O)N2C3CCC2CC3)c(-c2cnc(N[C@@H](C3CC3)C(F)(F)F)cc2C(F)F)s1 [Example 439, 4-((1s,4s)-7-Azabicyclo[2.2.1]heptane-7-carbonyl)-5-[6-[[(1S)-1-cyclopropyl-2,2,2-trifluoro-ethyl]amino]-4-(difluoromethyl)-3-pyridyl]-N-[(1R,2R)-2-hydroxycyclopentyl]thiazole-2-carboxamide] | 0.01 µM | 0.27 nM | – | – | inhibition at 3 µM (full-length human RORγt): 102%
CC[C@H](Nc1cc(C(F)F)c(-c2sc(C(=O)N[C@@H]3COC[C@H]3O)nc2C(=O)N2CCC[C@@H]2C)cn1)C(F)(F)F [Example 220, 5-(4-(Difluoromethyl)-6-(((1S)-1-(trifluoromethyl)propyl)amino)-3-pyridyl)-N-((3R,4S)-4-hydroxytetrahydrofuran-3-yl)-4-((2S)-2-methylpyrrolidine-1-carbonyl)thiazole-2-carboxamide] | – | 6.1 nM | – | 0.013 µM | RORγt (FL) Reporter Assay B or C, % inhibition (value marked *****) (full-length human RORγt; Conditions B or C, marked *****: footnote not shown): 111***** %
C[C@H](Nc1cc(C(F)F)c(-c2sc(C(=O)N[C@H]3COC[C@H]3O)nc2C(=O)N2CCC[C@@H]2C)cn1)C(F)(F)F (single isomer, unassigned) [Example 160, 5-(4-(Difluoromethyl)-6-(((S)-1,1,1-trifluoropropan-2-yl)amino)pyridin-3-yl)-N-((3S*,4S*)-4-hydroxytetrahydrofuran-3-yl)-4-((S)-2-methylpyrrolidine-1-carbonyl)thiazole-2-carboxamide] | – | 8.7 nM | 101* % | 0.41 µM | –
C[C@@H](NC(=O)c1nc(C(=O)N2C3CCC2CC3)c(-c2cnc(NC3(C)CCC3)cc2C(F)F)s1)C(C)(C)O [Example 329, 4-((1s,4s)-7-Azabicyclo[2.2.1]heptane-7-carbonyl)-5-(4-(difluoromethyl)-6-((1-methylcyclobutyl)amino)pyridin-3-yl)-N—((R)-3-hydroxy-3-methylbutan-2-yl)thiazole-2-carboxamide] | 0.038 µM | 1.7 nM | – | – | inhibition at 3 µM (full-length human RORγt): 89%
CC[C@H](Nc1cc(C(F)F)c(-c2sc(C(=O)N[C@H](C)CO)nc2C(=O)N2C3CCC2CC3)cn1)C(F)(F)F [Example 227, 4-((1s,4s)-7-Azabicyclo[2.2.1]heptane-7-carbonyl)-5-(4-(difluoromethyl)-6-(((1S)-1-(trifluoromethyl)propyl)amino)-3-pyridyl)-N-((1R)-2-hydroxy-1-methyl-ethyl)thiazole-2-carboxamide] | – | 4.6 nM | 95* % | – | IC50 (full-length human RORγt; RORγt (FL) Reporter Assay B or C, IC50 (μM), Conditions B or C): 0.014 µM
CC[C@H](Nc1cc(C(F)F)c(-c2sc(C(=O)N[C@H]3C[C@@H]3O)nc2C(=O)N2CCC[C@@H]2C)cn1)C(F)(F)F (relative stereo) [Example 214, 5-(4-(Difluoromethyl)-6-(((S)-1,1,1-trifluorobutan-2-yl)amino)pyridin-3-yl)-N-((1S*,2S*)-2-hydroxycyclopropyl)-4-((S)-2-methylpyrrolidine-1-carbonyl)thiazole-2-carboxamide] | – | 12 nM | 98* % | 0.075 µM | –
CC[C@H](Nc1cc(C(F)F)c(-c2sc(C(=O)N[C@@H](C)C(C)(C)O)nc2C(=O)N2CC(F)(F)C[C@@H]2C)cn1)C(F)(F)F [Example 246, 4-[(2S)-4,4-Difluoro-2-methyl-pyrrolidine-1-carbonyl]-5-[4-(difluoromethyl)-6-[[(1S)-1-(trifluoromethyl)propyl]amino]-3-pyridyl]-N-[(1S)-2-hydroxy-1,2-dimethyl-propyl]thiazole-2-carboxamide] | – | 1.3 nM | – | 0.011 µM | RORγt (FL) Reporter Assay B or C, % inhibition (value marked ***) (full-length human RORγt; Conditions B or C, marked ***: footnote not given): 112*** %
C[C@H]1CCCCN1C(=O)c1nc(C(=O)NCC(C)(C)O)sc1-c1cnc(N[C@@H]2CCCCC2(F)F)cc1C(F)(F)F (relative stereo) [Example 31, 5-(6-(((R*)-2,2-Difluorocyclohexyl)amino)-4-(trifluoromethyl)pyridin-3-yl)-N-(2-hydroxy-2-methylpropyl)-4-((S)-2-methylpiperidine-1-carbonyl)thiazole-2-carboxamide] | – | 0.15 nM | – | 0.0045 µM | inhibition at 6 µM (full-length human RORγt; read-out: RORγt (FL) Reporter Assay B or C, % inhibition @ 6 μM, Conditions B or C, @ 6 μM): 111%
C[C@H]1CCCN1C(=O)c1nc(C(=O)NCC(C)(C)O)sc1-c1cnc(NC(C)(C)C(F)(F)F)cc1C(F)(F)F [Example 132, (S)—N-(2-Hydroxy-2-methylpropyl)-4-(2-methylpyrrolidine-1-carbonyl)-5-(6-((1,1,1-trifluoro-2-methylpropan-2-yl)amino)-4-(trifluoromethyl)pyridin-3-yl)thiazole-2-carboxamide] | – | 0.41 nM | 112* % | 0.014 µM | –
C[C@H]1CCCN1C(=O)c1nc(C(=O)NCC(C)(O)C(F)(F)F)sc1-c1cnc(NC(C)(C)C)cc1C(F)(F)F (single isomer, unassigned) [Example 358, 5-(6-(tert-Butylamino)-4-(trifluoromethyl)pyridin-3-yl)-4-((S)-2-methylpyrrolidine-1-carbonyl)-N—((S*)-3,3,3-trifluoro-2-hydroxy-2-methylpropyl)thiazole-2-carboxamide] | 0.015 µM | 2.5 nM | – | – | inhibition at 3 µM (full-length human RORγt): 119%
